From patent US5863937A, “Pharmaceutical compositions” (BTG International Limited, priority 1993, dated 1999)
Values after ≈ are worked out from the molar mass of the structure shown.

Assays:
Experiment in all cases: MIC, broth serial dilution in liquid YNB medium
[1] = system: C. albicans ATTC 26278; assay type: cell-based, Candida albicans; settings: 30° C., 24 hours; for minimum inhibiting concentration (MIC), C. albicans ATTC 26278: YNB-Difco medium, 200 μg/ml sodium glutamate, 10^5 cells/ml; for minimum inhibiting concentration (MIC) against Candida albicans ATCC 26278: liquid YNB medium, monosodium glutamate 200 μg/ml
Description: The antifungal activity of the compounds has been determined by the serial dilution method in a liquid YNB (Yeast Nitrogen Base) medium containing monosodium glutamate at a concentration of 200 μg/ml, with a temperature of 30° C. and an incubation time of 24 hours.
(§1) The minimum inhibiting concentrations (MIC) in mg/ml were determined for the compounds of Examples 1, 2, 7, 8, 12 and 13 against various Candida sp. using the broth serial dilution method of Milewski et al., Drugs Exp. Clin. Res., 1988, 14, 461. A liquid Yeast Nitrogen Base (YNB)-Difco medium containing 200 μg/ml sodium glutamate was used with a content of 10^5 cells/ml at a temperature of 30° C. and with an incubation time of 24 hours.

[2] = system: C. albicans 2043; assay type: cell-based, Candida albicans; settings: YNB-Difco medium, 200 μg/ml sodium glutamate, 10^5 cells/ml, 30° C., 24 hours
Description: as §1

[3] = system: C. glabrata; assay type: cell-based, Candida glabrata; settings: YNB-Difco medium, 200 μg/ml sodium glutamate, 10^5 cells/ml, 30° C., 24 hours
Description: as §1

[4] = system: C. krusei; assay type: cell-based, Candida krusei; settings: YNB-Difco medium, 200 μg/ml sodium glutamate, 10^5 cells/ml, 30° C., 24 hours
Description: as §1

[5] = system: C. famata 1940; assay type: cell-based, Candida famata; settings: YNB-Difco medium, 200 μg/ml sodium glutamate, 10^5 cells/ml, 30° C., 24 hours
Description: as §1

[6] = listed as N^2 -L-norvalyl-N^3-trans-2,3-epoxysuccinamoyl-L-2,3-diaminopropanoic acid in th

minimum inhibiting concentration (MIC), C. albicans ATTC 26278 [1] [µg/mL] | minimum inhibiting concentration (MIC) against Candida albicans ATCC 26278 [1] [µg/mL] | minimum inhibiting concentration (MIC), C. albicans 2043 [2] [µg/mL] | minimum inhibiting concentration (MIC), C. glabrata [3] [µg/mL] | minimum inhibiting concentration (MIC), C. krusei [4] [µg/mL] | minimum inhibiting concentration (MIC), C. famata 1940 [5] [µg/mL] | minimum inhibiting concentration (MIC) against Candida albicans ATCC 26278 [1, 6] [µg/mL] | Compound
1200 (≈ 4160 µM) | 1.2 (≈ 4.16 µM) | 1000 (≈ 3470 µM) | 1500 (≈ 5200 µM) |  |  |  | C[C@H](N)C(=O)N[C@@H](CNC(=O)[C@@H]1O[C@H]1C(N)=O)C(=O)O (racemic) [Ala--DL--EADP, N^2 -L-alanyl-N^3 -DL-trans-2,3-epoxysuccinamoyl-L-2,3-diaminopropanoic acid, reference compound]
500 (≈ 1580 µM) |  | 750 (≈ 2370 µM) | 1250 (≈ 3950 µM) | 1000 (≈ 3160 µM) | 750 (≈ 2370 µM) |  | CCC[C@H](NC(=O)[C@@H](N)CNC(=O)[C@@H]1O[C@H]1C(N)=O)C(=O)O (racemic) [DL--EADP--Nva, N^3 -DL-trans-2,3-Epoxysuccinamoyl-L-2,3-diaminopropionyl-L-norvaline]
250 (≈ 790 µM) |  | 250 (≈ 790 µM) | 750 (≈ 2370 µM) | 350 (≈ 1110 µM) | 500 (≈ 1580 µM) | 0.25 (≈ 0.79 µM) | CCC[C@H](N)C(=O)N[C@@H](CNC(=O)[C@@H]1O[C@H]1C(N)=O)C(=O)O (racemic) [Nva--DL--EADP, N^2 -L-Norvalyl-N^3 -DL-trans-2,3-epoxysuccinamoyl-L-2,3-diaminopropanoic acid]

Second part, the molecule before the results:

Compound | minimum inhibiting concentration (MIC), C. albicans ATTC 26278 [1] [µg/mL] | minimum inhibiting concentration (MIC) against Candida albicans ATCC 26278 [1] [µg/mL] | minimum inhibiting concentration (MIC), C. albicans 2043 [2] [µg/mL] | minimum inhibiting concentration (MIC), C. glabrata [3] [µg/mL] | minimum inhibiting concentration (MIC), C. krusei [4] [µg/mL] | minimum inhibiting concentration (MIC), C. famata 1940 [5] [µg/mL] | minimum inhibiting concentration (MIC) against Candida albicans ATCC 26278 [1, 6] [µg/mL]
CCC[C@H](NC(=O)[C@@H](N)CCCCN)C(=O)N[C@@H](CNC(=O)[C@@H]1O[C@H]1C(N)=O)C(=O)O (relative stereo) [Lys--Nva--EADP, N^2 -L-Lysyl-L-norvalyl-N^3 -D-trans-2,3-epoxysuccinamoyl-L-2,3-diaminopropanoic acid] | 200 (≈ 450 µM) |  | 250 (≈ 562 µM) | 500 (≈ 1120 µM) | 750 (≈ 1690 µM) | 500 (≈ 1120 µM) | 
CCC[C@H](NC(=O)[C@@H](N)CNC(=O)[C@@H]1O[C@H]1C(N)=O)C(=O)O (relative stereo) [EADP--Nva, N^3 -D-trans-2,3-Epoxysuccinamoyl-L-2,3-diaminopropionyl-L-norvaline] | 400 (≈ 1260 µM) |  | 500 (≈ 1580 µM) | 1000 (≈ 3160 µM) | 800 (≈ 2530 µM) | 500 (≈ 1580 µM) | 
CCC[C@H](N)C(=O)N[C@@H](CNC(=O)[C@@H]1O[C@H]1C(N)=O)C(=O)O (relative stereo) [Nva--EADP, N^2 -L-Norvalyl-N^3 -D-trans-2,3-epoxysuccinamoyl-L-2,3-diaminopropanoic acid] | 150 (≈ 474 µM) |  | 100 (≈ 316 µM) | 500 (≈ 1580 µM) | 350 (≈ 1110 µM) | 350 (≈ 1110 µM) | 0.15 (≈ 0.474 µM)
CCC[C@H](NC(=O)[C@@H](N)CCCCN)C(=O)N[C@@H](CNC(=O)[C@@H]1O[C@H]1C(N)=O)C(=O)O (racemic) [Lys--Nva--DL--EADP, N^2 -L-Lysyl-L-norvalyl-N^3 -DL-trans-2,3-epoxysuccinamoyl-L-2,3-diaminopropanoic acid] | 500 (≈ 1120 µM) |  | 500 (≈ 1120 µM) | 750 (≈ 1690 µM) | 1500 (≈ 3370 µM) | 1000 (≈ 2250 µM) | 
